Results taken from ChEMBL document CHEMBL1201862, “PubChem BioAssay data set” (2004).
Activity calls are given as the source filed them.

Tests used:
[1] = test system: Streptococcus sp. 'group A'; assay: growth inhibition of control SK(-) GAS strain, dose response, counter-screen for streptokinase expression inhibitor project, luminescence, kanamycin, BacTiterGlo, confirmation (AID 1900); format: functional, organism-based
Streptokinase A = target: T1, Streptokinase A (Streptococcus pyogenes serotype M1, UniProt P10520); assay: S. pyogenes streptokinase expression inhibitors, potency, dose response, plasminogen activation absorbance, OD405 (AID 1914); format: functional, Streptococcus pyogenes M1 GAS;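 note: secreted streptokinase activity via plasminogen activation per viability signal from cell pellet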
T1 sequence (P10520 whole entry): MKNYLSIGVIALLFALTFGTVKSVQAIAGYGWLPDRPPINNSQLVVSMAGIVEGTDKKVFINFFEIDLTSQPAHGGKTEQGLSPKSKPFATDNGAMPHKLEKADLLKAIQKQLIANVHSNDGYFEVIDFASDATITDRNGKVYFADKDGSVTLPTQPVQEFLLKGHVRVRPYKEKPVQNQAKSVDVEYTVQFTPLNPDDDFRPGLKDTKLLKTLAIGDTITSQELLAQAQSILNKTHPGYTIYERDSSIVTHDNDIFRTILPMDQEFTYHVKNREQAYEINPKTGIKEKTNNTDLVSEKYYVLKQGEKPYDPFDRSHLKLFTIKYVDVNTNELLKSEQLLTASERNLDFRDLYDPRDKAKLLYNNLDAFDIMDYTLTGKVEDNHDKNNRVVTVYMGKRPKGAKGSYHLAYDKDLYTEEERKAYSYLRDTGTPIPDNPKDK

[2] = Counterscreen for AddAB inhibitors: absorbance-based bacterial cell-based high throughput dose response assay for inhibitors of bacterial viability. [Related pubchem assays (depositor defined):AID435030, AID449728, AID449731, AID488942, AID488955, AID488956]; format: functional
[3] = target: T2, Tyrosyl-DNA phosphodiesterase 2 (Homo sapiens, UniProt O95551); assay: human TDP2 enzyme inhibitors, dose response, biochemical, epi absorbance, IC50 (AID 743297)
T2 sequence (O95551 whole entry): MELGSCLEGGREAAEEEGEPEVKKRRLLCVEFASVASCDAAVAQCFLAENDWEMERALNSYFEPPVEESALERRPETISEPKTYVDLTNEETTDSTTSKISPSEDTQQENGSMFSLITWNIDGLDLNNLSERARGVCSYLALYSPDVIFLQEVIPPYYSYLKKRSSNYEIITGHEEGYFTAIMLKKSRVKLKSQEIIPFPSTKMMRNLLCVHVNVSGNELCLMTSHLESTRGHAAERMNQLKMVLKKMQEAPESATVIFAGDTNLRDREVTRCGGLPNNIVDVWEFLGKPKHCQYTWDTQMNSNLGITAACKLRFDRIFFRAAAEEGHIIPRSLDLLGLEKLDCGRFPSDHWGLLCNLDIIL

[4] = target: T3, Replicative DNA helicase DnaB (Mycobacterium tuberculosis, UniProt P9WMR3); assay: DnaB intein splicing inhibitors, dose response, biochemical, cell-free fluorescence (AID 449749); format: functional
T3 sequence (P9WMR3 whole entry): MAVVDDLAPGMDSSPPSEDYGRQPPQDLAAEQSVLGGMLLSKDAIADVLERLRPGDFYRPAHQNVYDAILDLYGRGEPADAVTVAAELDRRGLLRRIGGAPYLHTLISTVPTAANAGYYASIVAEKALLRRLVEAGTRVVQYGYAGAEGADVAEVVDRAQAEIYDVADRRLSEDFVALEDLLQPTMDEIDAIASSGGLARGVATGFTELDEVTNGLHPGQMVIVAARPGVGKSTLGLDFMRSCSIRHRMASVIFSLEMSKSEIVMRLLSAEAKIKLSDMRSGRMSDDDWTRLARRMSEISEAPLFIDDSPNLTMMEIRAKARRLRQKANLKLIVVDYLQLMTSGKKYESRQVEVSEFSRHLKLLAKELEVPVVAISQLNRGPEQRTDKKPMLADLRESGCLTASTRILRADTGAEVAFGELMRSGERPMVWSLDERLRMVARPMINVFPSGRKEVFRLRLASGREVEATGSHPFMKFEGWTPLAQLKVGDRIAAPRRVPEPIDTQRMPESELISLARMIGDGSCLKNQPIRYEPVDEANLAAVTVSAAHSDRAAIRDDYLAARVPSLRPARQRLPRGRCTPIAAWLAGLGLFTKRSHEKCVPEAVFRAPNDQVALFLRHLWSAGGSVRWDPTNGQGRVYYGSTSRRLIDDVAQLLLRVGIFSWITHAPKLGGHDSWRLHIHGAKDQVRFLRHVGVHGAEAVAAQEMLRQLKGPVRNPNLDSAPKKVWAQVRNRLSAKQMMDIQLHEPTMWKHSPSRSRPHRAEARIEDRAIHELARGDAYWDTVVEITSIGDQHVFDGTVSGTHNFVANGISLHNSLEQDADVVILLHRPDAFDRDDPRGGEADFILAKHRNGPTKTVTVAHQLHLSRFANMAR

INS1 = assay: beta cell apoptosis inhibitors, cytokine rescue, dose response, luminescence, retest (AID 449756); format: functional, cell-based; conditions: Rattus norvegicus;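 note: cell death triggered by IL-1 beta plus TNF-alpha plus IFN-gamma mixture; protective hits raise ATP signal compared with cytokine alone wells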

SMILES	EC50 [1]	EC50 (Streptokinase A)	IC50 [2]	IC50 [3]	AC50 [4]	AC50 (INS1)
O=C(Cc1ccc([N+](=O)[O-])cc1)N/N=C/c1ccc([N+](=O)[O-])o1	11.9 µM (active)	37 µM (active)	16.6 µM (inactive)			
CCCCNc1cc(NC(C)=O)cc2cc(OC)c(OC)cc12				87.5 µM (inactive)		
SC1=Nc2ccccc2C1					1.77 µM (active)	
Cn1nc(-c2ccc(Cl)cc2)nc2c(=O)n(C)c(=O)nc1-2					0.0409 µM (active)	0.441 µM (active)
COc1ccc(C(NC(=O)C(C)C)c2ccc3cccnc3c2O)cc1 (configuration not stated)	7.99 µM (active)	> 150 µM (not active)	> 119 µM (inactive)			0.65 µM (active)
NS(=O)(=O)c1ccc(NC(=O)COC(=O)c2ccc([N+](=O)[O-])s2)cc1				32.2 µM (inactive)		
